# Data taken from the supplement of paper PMC10307832.
# How the values were obtained:
# Assay in all cases: relative viability (nuclei count vs DMSO), 5 days (fraction); higher = more cells survive
# A-427 = test system: A-427
# In short: (§1)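 Lung cancer cell lines in 1536-well plates got either a single drug or a fixed anchor-drug dose together with five library-drug doses (not always all listed) in √10 steps, by pin tool, on the day after seeding. Nuclei were counted after 5 days, and relative viability is the treated-to-vehicle ratio of nuclei counts. Values are medians of duplicate plates.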
# H3255 = test system: H3255
# In short: as §1
# HARA = test system: HARA
# In short: as §1
# HCC-15 = test system: HCC-15
# In short: as §1
# HCC-366 = test system: HCC-366
# In short: as §1
# LXF-289 = test system: LXF-289
# In short: as §1
# NCI-H1437 = test system: NCI-H1437
# In short: as §1
# NCI-H1755 = test system: NCI-H1755
# In short: as §1
# NCI-H1793 = test system: NCI-H1793
# In short: as §1
# NCI-H1915 = test system: NCI-H1915
# In short: as §1
# NCI-H1975 = test system: NCI-H1975
# In short: as §1
# NCI-H2009 = test system: NCI-H2009
# In short: as §1
# NCI-H2023 = test system: NCI-H2023
# In short: as §1
# NCI-H2405 = test system: NCI-H2405
# In short: as §1
# NCI-H3122 = test system: NCI-H3122
# In short: as §1
# NCI-H441 = test system: NCI-H441
# In short: as §1
# NCI-H460 = test system: NCI-H460
# In short: as §1
# NCI-H596 = test system: NCI-H596
# In short: as §1
# NCI-H650 = test system: NCI-H650
# In short: as §1
# PC-14 = test system: PC-14
# In short: as §1
# PC-3 [JPC-3] = test system: PC-3 [JPC-3]
# In short: as §1
# SK-LU-1 = test system: SK-LU-1
# In short: as §1
# UMC-11 = test system: UMC-11
# In short: as §1
compound,measurement,setting,value
Cc1cnc(-c2cnc(NCCNc3ccc(C#N)cn3)nc2-c2ccc(Cl)cc2Cl)[nH]1 + Nc1nc2[nH]cc(CCc3ccc(C(=O)N[C@@H](CCC(=O)O)C(=O)O)cc3)c2c(=O)[nH]1 [Pemetrexed] (partner 0.2 µM),relative viability,A-427; first compound 0.08 µM,0.981
same,relative viability,A-427; first compound 0.253 µM,0.901
same,relative viability,A-427; first compound 0.8 µM,0.928
same,relative viability,A-427; first compound 2.53 µM,0.927
same,relative viability,H3255; first compound 0.08 µM,0.555
same,relative viability,H3255; first compound 0.253 µM,0.587
same,relative viability,H3255; first compound 0.8 µM,0.533
same,relative viability,H3255; first compound 2.53 µM,0.508
same,relative viability,HARA; first compound 0.08 µM,0.277
same,relative viability,HARA; first compound 0.253 µM,0.207
same,relative viability,HARA; first compound 0.8 µM,0.255
same,relative viability,HARA; first compound 2.53 µM,0.235
same,relative viability,HCC-15; first compound 0.08 µM,0.207
same,relative viability,HCC-15; first compound 0.253 µM,0.219
same,relative viability,HCC-15; first compound 0.8 µM,0.216
same,relative viability,HCC-15; first compound 2.53 µM,0.194
same,relative viability,HCC-366; first compound 0.08 µM,0.161
same,relative viability,HCC-366; first compound 0.253 µM,0.137
same,relative viability,HCC-366; first compound 0.8 µM,0.133
same,relative viability,HCC-366; first compound 2.53 µM,0.126
same,relative viability,LXF-289; first compound 0.08 µM,0.91
same,relative viability,LXF-289; first compound 0.253 µM,0.818
same,relative viability,LXF-289; first compound 0.8 µM,0.829
same,relative viability,LXF-289; first compound 2.53 µM,0.962
same,relative viability,NCI-H1437; first compound 0.08 µM,0.3
same,relative viability,NCI-H1437; first compound 0.253 µM,0.328
same,relative viability,NCI-H1437; first compound 0.8 µM,0.268
same,relative viability,NCI-H1437; first compound 2.53 µM,0.269
same,relative viability,NCI-H1755; first compound 0.08 µM,0.403
same,relative viability,NCI-H1755; first compound 0.253 µM,0.437
same,relative viability,NCI-H1755; first compound 0.8 µM,0.421
same,relative viability,NCI-H1755; first compound 2.53 µM,0.565
same,relative viability,NCI-H1793; first compound 0.08 µM,1.04
same,relative viability,NCI-H1793; first compound 0.253 µM,0.839
same,relative viability,NCI-H1793; first compound 0.8 µM,0.794
same,relative viability,NCI-H1793; first compound 2.53 µM,1.14
same,relative viability,NCI-H1915; first compound 0.08 µM,0.49
same,relative viability,NCI-H1915; first compound 0.8 µM,0.438
same,relative viability,NCI-H1915; first compound 2.53 µM,0.398
same,relative viability,NCI-H1975; first compound 0.08 µM,0.289
same,relative viability,NCI-H1975; first compound 0.253 µM,0.285
same,relative viability,NCI-H1975; first compound 0.8 µM,0.287
same,relative viability,NCI-H1975; first compound 2.53 µM,0.242
same,relative viability,NCI-H2009; first compound 0.08 µM,0.966
same,relative viability,NCI-H2009; first compound 0.253 µM,0.983
same,relative viability,NCI-H2009; first compound 0.8 µM,0.982
same,relative viability,NCI-H2009; first compound 2.53 µM,0.95
same,relative viability,NCI-H2023; first compound 0.08 µM,0.283
same,relative viability,NCI-H2023; first compound 0.253 µM,0.229
same,relative viability,NCI-H2023; first compound 0.8 µM,0.199
same,relative viability,NCI-H2023; first compound 2.53 µM,0.261
same,relative viability,NCI-H2405; first compound 0.08 µM,1.09
same,relative viability,NCI-H2405; first compound 0.253 µM,1.06
same,relative viability,NCI-H2405; first compound 0.8 µM,1.04
same,relative viability,NCI-H2405; first compound 2.53 µM,0.468
same,relative viability,NCI-H3122; first compound 0.08 µM,0.201
same,relative viability,NCI-H3122; first compound 0.8 µM,0.183
same,relative viability,NCI-H3122; first compound 2.53 µM,0.174
same,relative viability,NCI-H441; first compound 0.08 µM,0.271
same,relative viability,NCI-H441; first compound 0.8 µM,0.279
same,relative viability,NCI-H441; first compound 2.53 µM,0.236
same,relative viability,NCI-H460; first compound 0.08 µM,0.073
same,relative viability,NCI-H460; first compound 0.253 µM,0.0754
same,relative viability,NCI-H460; first compound 0.8 µM,0.0676
same,relative viability,NCI-H460; first compound 2.53 µM,0.0722
same,relative viability,NCI-H596; first compound 0.08 µM,0.531
same,relative viability,NCI-H596; first compound 0.253 µM,0.485
same,relative viability,NCI-H596; first compound 0.8 µM,0.49
same,relative viability,NCI-H596; first compound 2.53 µM,0.53
same,relative viability,NCI-H650; first compound 0.08 µM,0.915
same,relative viability,NCI-H650; first compound 0.253 µM,0.92
same,relative viability,NCI-H650; first compound 0.8 µM,0.934
same,relative viability,NCI-H650; first compound 2.53 µM,0.904
same,relative viability,PC-14; first compound 0.08 µM,0.122
same,relative viability,PC-14; first compound 0.253 µM,0.127
same,relative viability,PC-14; first compound 0.8 µM,0.129
same,relative viability,PC-14; first compound 2.53 µM,0.152
same,relative viability,PC-3 [JPC-3]; first compound 0.08 µM,1.08
same,relative viability,PC-3 [JPC-3]; first compound 0.253 µM,1.02
same,relative viability,PC-3 [JPC-3]; first compound 0.8 µM,1.12
same,relative viability,PC-3 [JPC-3]; first compound 2.53 µM,0.969
same,relative viability,SK-LU-1; first compound 0.08 µM,0.966
same,relative viability,SK-LU-1; first compound 0.253 µM,0.97
same,relative viability,SK-LU-1; first compound 0.8 µM,0.975
same,relative viability,SK-LU-1; first compound 2.53 µM,0.823
same,relative viability,UMC-11; first compound 0.08 µM,0.867
same,relative viability,UMC-11; first compound 0.253 µM,0.772
same,relative viability,UMC-11; first compound 0.8 µM,0.822
same,relative viability,UMC-11; first compound 2.53 µM,0.735
